Measured values as given in US20250129086A1, “COMPOUND FOR DEGRADING EGFR PROTEIN AND USE THEREOF” (TYK MEDICINES, INC., priority 2021, published 2025).

Tests used:
Assay type in all cases: cell-based, human
[1] = test system: H1975 (EGFR L858R/T790M double mutation); assay: Cell antiproliferative assay (CTG, 72 h), H1975; conditions: Homo sapiens
Method: (§1) Test Example 1 Cell Antiproliferative Assay
(§2) H1975: with EGFR: L858R/T790M double mutation; PC-9 with EGFR exon 19 deletion, HCC827 with exon 19 deletion mutation. CellCounting-Lite2.0, Trypsin EDTA, 37° C. CO2 incubator, cell counter, EnVision Serial No.1050454. II. Experimental preparation:
(§3) • (A) Trypsin EDTA was used to digest log-phase cells, medium was added to terminate the reaction, and a cell suspension was made by blowing and mixing with a pipette. • (B) Cell concentration was determined using Vi-cell, and a suspension of 15,000-25,000 cells per milliliter was made depending on the purpose of the experiment and the characteristics of the cells. • (C) After the cell suspension was prepared, it was gently mixed and 100 microliters per well was added so that the density of cells to be tested was 1500-2500 per well.
(§4) • (A) About 2 mg of compound was weighed, and the volume of DMSO required was calculated according to the formula: compound mass (mg)*compound purity (%)/compound molecular weight*1000 • (B) The inoculated cell culture plates were incubated in an incubator and the compounds with concentration gradient were added after about 24 hours. • (C)10 Mm of compound stock solution was diluted to […] with medium, and 50 Mm of compound solution was added sequentially to the second column of the deep-well plate, and […] of medium containing 0.5% DMSO was added to the third to eleventh columns. • (D) Gradient dilution: 125 μl of solution was pipetted from the second column and added to the third column, after mixing; another 125 μl of solution was pipetted from the third column and added to the fourth column, and the operation was repeated until the tenth column. • (E)25 μl of compound was pipetted from the deep-well plate into a 96-well culture plate using a multichannel pipette, and each compound was repeated three times on the 96-well plate. A maximum concentration of 10,000 nm with concentration gradient of 1:4 was eventually formed on the 96-well plate.
(§5) • (A)96-well plates were incubated in an incubator for 72 h. The effect of the compounds was observed under an inverted microscope. • (B)25 μl of CTG solution was added to each well, the plate was put on shaker for 10 minutes and the […] of each well was read.
(§6) The cell viability rate (% Cell Viability) was calculated using the following formula: • % Cell Viability=100%×(Lum_Sample-Lum_LC)/(Lum_HC-Lum_LC) • Lum_HC: Cell reading of 0.1% DMSO control • Lum_Sample: Cell reading with compound added • Lum_LC: Reading of Blank media • IC50 values were obtained by curve fitting with GraphPad Prism 8 software.

[2] = test system: PC-9 (EGFR exon 19 deletion); assay: Cell antiproliferative assay (CTG, 72 h), PC-9; conditions: Homo sapiens, Table 2, PC-9 cells
Method: as §1, §2, §3, §4, §5, §6

[3] = test system: HCC827 (exon 19 deletion mutation); assay: Cell antiproliferative assay (CTG, 72 h), HCC827; conditions: Homo sapiens, Table 2, HCC827 cells
Method: as §1, §2, §3, §4, §5, §6

[4] = NCI-H1975, 72 h, Table 2, H1975 cells

Structure (SMILES) | IC50 [1, 4] [nM] | IC50 ([2]; PC-9, 72 h) [nM] | IC50 ([3]; HCC827, 72 h) [nM] | IC50 ([1]; NCI-H1975, Table 2, H1975 cells) [nM] | IC50 [2] [nM] | IC50 [3] [nM]
COc1cc(N2CCN(C(=O)CN3CCC(c4ccc(NC5CCC(=O)NC5=O)cc4)CC3)CC2)ccc1Nc1ncc(Cl)c(Nc2ccccc2OC(=O)N(C)C)n1 (stereo not drawn) [Compound T-152] |  |  |  | 100 to 1000 | ≥ 1000 | ≥ 1000
COc1cc(N2CCC[C@H](N(C)CN3CCC(c4ccc(NC5CCC(=O)NC5=O)cc4)CC3)C2)ccc1Nc1ncc(Cl)c(Nc2ccccc2C(C)=O)n1 (stereo partly drawn) [Compound T-167] | 100 to 1000 | ≥ 1000 | ≥ 1000 |  |  | 
COc1cc(N2CC(N(C)C(=O)CN3CCC(c4ccc(NC5CCC(=O)NC5=O)cc4)CC3)C2)ccc1Nc1ncc(Cl)c(Nc2ccccc2C(C)=O)n1 (stereo not drawn) [Compound T-170] | 100 to 1000 | ≥ 1000 | ≥ 1000 |  |  | 
COc1cc(N2CC[C@@H](NC(=O)CN3CCC(c4ccc(NC5CCC(=O)NC5=O)cc4)CC3)C2)ccc1Nc1ncc(Cl)c(Nc2ccccc2C(C)=O)n1 (stereo partly drawn) [Compound T-173] | 100 to 1000 | ≥ 1000 | 100 to 1000 |  |  | 
COc1cc(N2CC[C@H](NC(=O)CN3CCC(c4ccc(NC5CCC(=O)NC5=O)cc4)CC3)C2)ccc1Nc1ncc(Cl)c(Nc2ccccc2C(C)=O)n1 (stereo partly drawn) [Compound T-174] | 100 to 1000 | ≥ 1000 | ≥ 1000 |  |  | 
C=CC(=O)Nc1cc(Nc2ncc(C(F)(F)F)c(Nc3ccccc3)n2)c(OC)cc1N(C)CCN(C)C(=O)CN1CCC(c2ccc(NC3CCC(=O)NC3=O)cc2)CC1 (stereo not drawn) [Compound T-180] | 100 to 1000 | ≥ 1000 | ≥ 1000 |  |  | 
COc1cc(N2CCN(C(=O)CN3CCC(c4cccc(NC5CCC(=O)NC5=O)c4)CC3)CC2)ccc1Nc1ncc(Cl)c(Nc2ccccc2C(C)=O)n1 (stereo not drawn) [Compound T-181] | 100 to 1000 | 100 to 1000 | ≥ 1000 |  |  | 
COc1cc(N2CC3CN(C(=O)CN4CCC(c5ccc(NC6CCC(=O)NC6=O)cc5)CC4)CC3C2)ccc1Nc1ncc(Cl)c(Nc2ccccc2C(C)=O)n1 (stereo not drawn) [Compound T-188] | 10 to 100 | 100 to 1000 | 100 to 1000 |  |  | 

More lines, main results first:

IC50 [1, 4] [nM] | IC50 ([2]; PC-9, 72 h) [nM] | IC50 ([3]; HCC827, 72 h) [nM] | Structure (SMILES) | IC50 ([1]; NCI-H1975, Table 2, H1975 cells) [nM] | IC50 [2] [nM] | IC50 [3] [nM]
100 to 1000 | ≥ 1000 | 100 to 1000 | COc1cc(N2CCN(C(=O)CN3CCC(c4ccc(NC5CCC(=O)NC5=O)cc4)CC3)CC2)ccc1Nc1ncc(Cl)c(Nc2ccccc2C#N)n1 (stereo not drawn) [Compound T-139] |  |  | 
10 to 100 | 100 to 1000 | 100 to 1000 | O=C1CCC(Nc2ccc(C3CCN(CC(=O)N4CCN(c5ccc(-c6cc(F)c7c(c6)C(=O)N(C(C(=O)Nc6nccs6)c6ccccc6F)C7)cc5)CC4)CC3)cc2)C(=O)N1 (stereo not drawn) [Compound T-140] |  |  | 
100 to 1000 | ≥ 1000 | ≥ 1000 | COc1cc(N2CCC[C@H](NC(=O)CN3CCC(c4ccc(NC5CCC(=O)NC5=O)cc4)CC3)C2)ccc1Nc1ncc(Cl)c(Nc2ccccc2C(C)=O)n1 (stereo partly drawn) [Compound T-166] |  |  | 
10 to 100 | ≥ 1000 | 100 to 1000 | COc1cc(N2CC[C@@H](N(C)C(=O)CN3CCC(c4ccc(NC5CCC(=O)NC5=O)cc4)CC3)C2)ccc1Nc1ncc(Cl)c(Nc2ccccc2C(C)=O)n1 (stereo partly drawn) [Compound T-171] |  |  | 
100 to 1000 | ≥ 1000 | ≥ 1000 | CC(=O)c1ccccc1Nc1nc(Nc2ccc(N3CCN(C(=O)CN4CCC(c5ccc(NC6CCC(=O)NC6=O)cc5)CC4)CC3)cc2OC(C)C)ncc1Cl (stereo not drawn) [Compound T-179] |  |  | 
10 to 100 | 100 to 1000 | 100 to 1000 | COc1cc(N2C[C@H]3CN(C(=O)CN4CCN(c5ccc(NC6CCC(=O)NC6=O)cc5)CC4)C[C@H]3C2)ccc1Nc1ncc(Cl)c(Nc2ccccc2C(C)=O)n1 (stereo partly drawn) [Compound T-189] |  |  | 
100 to 1000 | 100 to 1000 | 100 to 1000 | COc1cc(N2CCN(C(=O)CN3CCC(c4ccccc4NC4CCC(=O)NC4=O)CC3)CC2)ccc1Nc1ncc(Cl)c(Nc2ccccc2C(C)=O)n1 (stereo not drawn) [Compound T-193] |  |  | 
10 to 100 | 100 to 1000 | 100 to 1000 | COc1cc(N2CCN(C(=O)CN3CCC(c4ccc(NC5CCC(=O)NC5=O)cc4)CC3)CC2)ccc1Nc1ncc(Cl)c(Nc2ccccc2NC(C)=O)n1 (stereo not drawn) [Compound T-195] |  |  | 
